Test results taken from patent US12631645B2, “Detection of BCL-2 family heterodimer complexes and use thereof” (The U.S.A., as represented by the Secretary, Department of …, priority 2019, dated 2026).

Columns and labels:
[1] = tested on: MV411 xenograft tumors; assay: Response of AML model MV411 to BH3 mimetic treatment; format: in vivo, mice; conditions: MV411 xenograft tumor lysates, 24 hours after treatment; NSC798846 25 mg/kg intravenously, NSC766270 100 mg/kg orally (FIG. 7B)
[2] = tested on: BAK-BAX oligomerization; assay: Heterodimer complexes in AMO-1 xenograft tumor lysates after treatment, BAK-BAX; format: in vivo, mice; conditions: 16 hours after treatment, 100 mg/kg orally (FIG. 7A)
Method: The immunoassays described herein were built on the Luminex xMAP multiplex technology platform using magnetic bead capture. Washes were performed with a 96-well magnetic plate washer (ELx405), BioTek). During incubation, the plates were placed on an orbital titer plate shaker (VWR International). Liquid handling was performed manually with calibrated, adjustable, precision multichannel pipettes (Rainin 8-Channel). All assays were performed in 96-well plates (BioPlex, BioRad) at 25° C.±3° C. by adding 10 μL of blocking solution (Myriad RBM) and 30 μL of calibrator, control, or unknown sample. Antibody-coupled beads were sonicated for 5 seconds and then vortexed at medium speed for 10 to 20 seconds to disperse the beads, and 10 μL beads (250 beads/analyte/μL) were added to each well per analyte. Plates were protected from light (Black Microplate Lid, VWR) and incubated for 1 hour at 25° C.±3° C. with shaking. […] After a final wash, 100 μL of assay buffer was added to each well and plates were read on a Luminex 200 reader.
Heterodimer complexes were measured in AMO-1 and MV11 xenograft tumor lysates using the immunoassay described in Examples 3 and 4. […] The level of cleaved caspase-3 was also measured. […] Heterodimer composition was also measured in blood or bone marrow samples of 11 patients with CLL.

[3] = tested on: AMO-1 xenograft tumors; assay: Response of multiple myeloma model AMO-1 to BH3 mimetic treatment; format: in vivo, mice; conditions: 100 mg/kg orally, 16 hours (FIG. 7A)
[4] = tested on: AMO1 xenografts; conditions: intravenous injection; Kotschy et al.; cited from earlier work
[5] = tested on: cleaved caspase-3; assay: Cleaved caspase-3 level in treated cancer cell lines; format: cell-based, human; set-up: dose or concentration left out as unconfirmed
Method: (§1) Further studies were conducted to evaluate the effect of BH3 mimetics on Bcl-2 family heterodimer levels and induction of apoptosis.
(§2) Similar studies were performed in AMO-1 plasmacytoma cells and Mv4-11 acute myeloid leukemia cells. […] The level of cleaved caspase-3 was also determined.

[6] = tested on: AMO-1 cell line; conditions: read-out: IC50 (sensitivity to S63845), Kotschy et al., Nature 2016; cited from earlier work
[7] = tested on: MV4-11 human AML xenograft model; conditions: in vivo; compared with AMO1 xenografts; Kotschy et al.; cited from earlier work
[8] = target: T1, Bcl-2-BIM complexes (Homo sapiens, UniProt P10415); assay: Heterodimer complexes in AMO-1 xenograft tumor lysates after treatment, Bcl-2-BIM; format: in vivo, mice; conditions: 16 hours after treatment, NSC798846 25 mg/kg intravenously, NSC766270 100 mg/kg orally (FIG. 7A)
T1 construct: from tissue; host or cells: AMO-1 xenograft tumors grown in mice
Method: (§3) The immunoassays described herein were built on the Luminex xMAP multiplex technology platform using magnetic bead capture. Washes were performed with a 96-well magnetic plate washer (ELx405), BioTek). During incubation, the plates were placed on an orbital titer plate shaker (VWR International). Liquid handling was performed manually with calibrated, adjustable, precision multichannel pipettes (Rainin 8-Channel). All assays were performed in 96-well plates (BioPlex, BioRad) at 25° C.±3° C. by adding 10 μL of blocking solution (Myriad RBM) and 30 μL of calibrator, control, or unknown sample. Antibody-coupled beads were sonicated for 5 seconds and then vortexed at medium speed for 10 to 20 seconds to disperse the beads, and 10 μL beads (250 beads/analyte/μL) were added to each well per analyte. Plates were protected from light (Black Microplate Lid, VWR) and incubated for 1 hour at 25° C.±3° C. with shaking. Plates were washed with wash solution (Myriad RBM), and then 40 μL of detection antibody-biotin conjugate was added and plates were incubated for an additional hour with shaking. After incubation with the antibody-biotin conjugate, 40 μL of R-phycoerythrin-labeled streptavidin (Invitrogen) was added, and plates were incubated for 30 minutes with shaking. After a final wash, 100 μL of assay buffer was added to each well and plates were read on a Luminex 200 reader.

[9] = tested on: BIM; conditions: AMO-1 xenograft tumor lysates, 16 hours after 25 mg/kg intravenously (FIG. 7A)
Method: The effect of two different BH3 mimetics on heterodimer composition in the AMO-1 and MV411 models was next evaluated. […] Heterodimer complexes were measured in tumor lysates prepared from AMO-1 mice 16 hours after treatment and from MV411 mice 24 hours after treatment.

[10] = tested on: BAX-BAK heterodimer; assay: Heterodimer immunoassay, BAX-BAK in lysates of treated cancer cell lines; format: cell-based, human; set-up: BAX-BAK heterodimers: dose or concentration left out as unconfirmed; conditions: for BAX-BAK levels: HCT116 and MOLT-4 cancer cell lines (FIG. 4C)
Method: as §3, §1, §2

[11] = target: BIM-Bcl-xL heterodimer (Homo sapiens, UniProt Q07817); assay: Heterodimer immunoassay, BIM-Bcl-xL in lysates of treated cancer cell lines; format: cell-based; set-up: BIM-Bcl-xL heterodimeric complexes: dose or concentration left out as unconfirmed
Method: as §3, with “After incubation with the antibody-biotin conjugate, 40 μL of R-phycoerythrin-labeled streptavidin (Invitrogen) was added, and plates were incubated for 30 minutes with shaking.” left out, “reader. […]” for “reader.”
as §2

[12] = target: T2, BIM-Mcl-1 heterodimer (Homo sapiens, UniProt Q07820); assay: Heterodimer immunoassay, BIM-Mcl-1 in lysates of treated cancer cell lines; format: cell-based; set-up: BIM-Mcl-1 heterodimers: dose or concentration left out as unconfirmed
T2 construct: Within cells, anti-apoptotic proteins exist primarily as complexed heterodimers with pro-apoptotic proteins; endogenous in cells; host or cells: AMO-1, MV4-11 (Mv411), HCT116, MOLT-4
Method: as §3, §1, §2

[13] = AMO-1 cells, treated vs untreated (FIG. 5B, 5C)
[14] = HCT116 and MOLT-4 cancer cell lines (FIG. 4D)
[15] = Mv4-11 cells, treated vs untreated (FIG. 5D, 5E)
[16] = Mv4-11 cells, treated with vs untreated (FIG. 5D, 5E)

T2 sequence (Q07820 whole entry, one chain of several): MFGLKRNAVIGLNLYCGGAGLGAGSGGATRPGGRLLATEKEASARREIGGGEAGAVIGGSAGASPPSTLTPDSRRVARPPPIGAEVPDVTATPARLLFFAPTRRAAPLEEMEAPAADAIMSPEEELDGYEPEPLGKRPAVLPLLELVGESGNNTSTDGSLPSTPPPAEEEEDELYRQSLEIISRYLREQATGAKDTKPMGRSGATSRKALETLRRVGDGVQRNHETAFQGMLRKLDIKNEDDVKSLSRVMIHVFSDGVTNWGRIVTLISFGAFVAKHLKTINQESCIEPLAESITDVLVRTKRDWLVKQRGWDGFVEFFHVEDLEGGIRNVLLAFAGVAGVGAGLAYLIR
Sequence of BIM-Bcl-xL heterodimer (Q07817 whole entry, one chain of several): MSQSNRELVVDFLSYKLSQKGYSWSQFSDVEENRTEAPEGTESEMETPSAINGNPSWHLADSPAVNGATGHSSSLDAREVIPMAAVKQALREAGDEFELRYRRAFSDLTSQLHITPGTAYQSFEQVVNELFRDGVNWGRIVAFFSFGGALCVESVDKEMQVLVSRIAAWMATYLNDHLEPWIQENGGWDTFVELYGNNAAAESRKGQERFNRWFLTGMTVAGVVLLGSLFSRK
T1 sequence (P10415 whole entry, one chain of several): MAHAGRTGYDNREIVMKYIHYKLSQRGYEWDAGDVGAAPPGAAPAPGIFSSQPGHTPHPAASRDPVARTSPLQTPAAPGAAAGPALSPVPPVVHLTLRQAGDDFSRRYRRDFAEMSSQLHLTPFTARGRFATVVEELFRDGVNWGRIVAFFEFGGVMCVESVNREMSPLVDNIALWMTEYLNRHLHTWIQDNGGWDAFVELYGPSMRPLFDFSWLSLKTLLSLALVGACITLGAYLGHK

SMILES | disrupting the balance of BIM complexes and initiating caspase-3 activation and cell death [1] | BAK-BAX oligomerization (mitochondrial poration marker), subsequent caspase-3 activation and cell death [2] | effectiveness of treatment in multiple myeloma model AMO-1 [3] | anti-tumor activity in AMO1 xenografts [4] | cleaved caspase-3 [5, 13] | cleaved caspase-3 [5, 14] | cleaved caspase-3 [5, 15] | IC50 [6] | activity in MV4-11 human AML xenograft model [7] | Bcl-2-BIM complexes [8] | BIM (overall) [9] | BAX-BAK heterodimers ([10]; AMO-1 cells, treated with vs untreated (FIG. 5B)) | BAX-BAK levels [10] | BAX-BAK heterodimers [10, 16] | BIM-Bcl-xL levels ([11]; HCT116 and MOLT-4 cancer cell lines (FIG. 4A)) | BIM-Bcl-xL heterodimeric complexes ([11]; Mv4-11 cells, treated vs untreated (FIG. 5E)) | BIM-Mcl-1 levels ([12]; AMO-1 and Mv411 cell lines, in vitro (FIG. 3A)) | BIM-Mcl-1 levels ([12]; HCT116 and MOLT-4 cancer cell lines (FIG. 4B)) | BIM-Mcl-1 heterodimers [12, 16]
CC1(C)CCC(CN2CCN(c3ccc(C(=O)NS(=O)(=O)c4ccc(NCC5CCOCC5)c([N+](=O)[O-])c4)c(Oc4cnc5[nH]ccc5c4)c3)CC2)=C(c2ccc(Cl)cc2)C1 [NSC766270] | equally effective | did not initiate | ineffective | – | – | – | – | – | – | – | – | – | – | – | – | – | – | – | –
Cc1c(-c2c(-c3ccc(F)o3)sc3ncnc(O[C@H](Cc4ccccc4OCc4ccnn4CC(F)(F)F)C(=O)O)c23)ccc(OCCN2CCN(C)CC2)c1Cl [S63845] | equally effective | – | – | dose-dependent anti-tumor activity | increase | increased activation | significant increase | < 100 nM | less potent activity | disruption | overall degradation | increase | increased | significant increase | – | – | – | – | –
CC1(C)CCC(c2ccc(Cl)cc2)=C(CN2CCN(c3ccc(C(=O)NS(=O)(=O)c4ccc(N[C@H](CCN5CCOCC5)CSc5ccccc5)c(S(=O)(=O)C(F)(F)F)c4)cc3)CC2)C1 [novitoclax] | – | – | – | – | did not lead to a significant increase | increased activation | increase | – | – | – | – | – | increased | increase | disrupted | decrease | largely unaffected | increased | increase
